Source: PubChem BioAssay (NCI)
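Test compounds were applied to cells in 96-well plates for 48 hours at 5 doses. Definition used: TGI = concentration required for complete inhibition of growth.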

Assays:
Experiment in all cases: NCI anticancer screen, dose series, 48 h
SN12C renal = test system: SN12C renal
DU-145 prostate = test system: DU-145 prostate
HL-60(TB) leukemia = test system: HL-60(TB) leukemia
KM12 colon = test system: KM12 colon
A498 renal = test system: A498 renal
ACHN renal = test system: ACHN renal
EKVX NSCLC = test system: EKVX NSCLC
PC-3 prostate = test system: PC-3 prostate
MDA-N = test system: MDA-N
K-562 leukemia = test system: K-562 leukemia
HCT-15 colon = test system: HCT-15 colon
NCI/ADR-RES ovarian = test system: NCI/ADR-RES ovarian
UACC-257 melanoma = test system: UACC-257 melanoma
U251 CNS = test system: U251 CNS
HS 578T breast = test system: HS 578T breast
HCT-116 colon = test system: HCT-116 colon
MDA-MB-435 = test system: MDA-MB-435
SF-268 CNS = test system: SF-268 CNS
SK-MEL-2 melanoma = test system: SK-MEL-2 melanoma
LOX IMVI melanoma = test system: LOX IMVI melanoma
OVCAR-8 ovarian = test system: OVCAR-8 ovarian
IGROV1 ovarian = test system: IGROV1 ovarian
SW-620 colon = test system: SW-620 colon
M14 melanoma = test system: M14 melanoma
HT29 colon = test system: HT29 colon
OVCAR-4 ovarian = test system: OVCAR-4 ovarian
786-0 renal = test system: 786-0 renal
HOP-62 NSCLC = test system: HOP-62 NSCLC
NCI-H23 lung = test system: NCI-H23 lung
RPMI-8226 leukemia = test system: RPMI-8226 leukemia
SF-295 CNS = test system: SF-295 CNS
BT-549 breast = test system: BT-549 breast
TK-10 renal = test system: TK-10 renal
SK-OV-3 ovarian = test system: SK-OV-3 ovarian
SK-MEL-5 melanoma = test system: SK-MEL-5 melanoma
SNB-19 CNS = test system: SNB-19 CNS
A549 NSCLC = test system: A549 NSCLC
UO-31 renal = test system: UO-31 renal
HOP-92 NSCLC = test system: HOP-92 NSCLC
MOLT-4 leukemia = test system: MOLT-4 leukemia
SK-MEL-28 melanoma = test system: SK-MEL-28 melanoma
NCI-H226 lung = test system: NCI-H226 lung
MDA-MB-231 breast = test system: MDA-MB-231 breast
CAKI-1 renal = test system: CAKI-1 renal
OVCAR-3 ovarian = test system: OVCAR-3 ovarian
MALME-3M melanoma = test system: MALME-3M melanoma
MCF7 breast = test system: MCF7 breast
RXF 393 renal = test system: RXF 393 renal
SF-539 CNS = test system: SF-539 CNS
T-47D breast = test system: T-47D breast
COLO 205 colon = test system: COLO 205 colon
SR leukemia = test system: SR leukemia
OVCAR-5 ovarian = test system: OVCAR-5 ovarian
CCRF-CEM leukemia = test system: CCRF-CEM leukemia
UACC-62 melanoma = test system: UACC-62 melanoma
NCI-H522 lung = test system: NCI-H522 lung
NCI-H460 lung = test system: NCI-H460 lung
SNB-75 CNS = test system: SNB-75 CNS
HCC-2998 colon = test system: HCC-2998 colon

For COC(=O)C12OC3CO[Si](C(C)C)(C(C)C)O[Si](C(C)C)(C(C)C)OC3C1Oc1nc(=O)ccn12 (configuration not stated), the TGI (SN12C renal) was 32 µM, the TGI (DU-145 prostate) was 32.5 µM and the TGI (HL-60(TB) leukemia) was 72.9 µM. For the same molecule, the TGI (KM12 colon) was 29.2 µM, the TGI (A498 renal) was 38.8 µM and the TGI (ACHN renal) was 32.2 µM. It also gave a TGI (EKVX NSCLC) of 30.7 µM, a TGI (PC-3 prostate) of 29.2 µM and a TGI (MDA-N) of 32.7 µM. The TGI (K-562 leukemia) was 30.6 µM, the TGI (HCT-15 colon) was 30.1 µM and the TGI (NCI/ADR-RES ovarian) was 29.2 µM. The TGI (UACC-257 melanoma) was 29.1 µM, the TGI (U251 CNS) was 29.6 µM and the TGI (HS 578T breast) was 7.3 µM. It also gave a TGI (HCT-116 colon) of 29.6 µM, a TGI (MDA-MB-435) of 31.3 µM and a TGI (SF-268 CNS) of 24.6 µM. The TGI (SK-MEL-2 melanoma) was 31.6 µM, the TGI (LOX IMVI melanoma) was 31.6 µM and the TGI (OVCAR-8 ovarian) was 29 µM. The TGI (IGROV1 ovarian) was 24 µM, the TGI (SW-620 colon) was 30 µM and the TGI (M14 melanoma) was 32.3 µM. The TGI (HT29 colon) was 29.3 µM, the TGI (OVCAR-4 ovarian) was 30.8 µM and the TGI (786-0 renal) was 31.6 µM. It also gave a TGI (HOP-62 NSCLC) of 32.2 µM, a TGI (NCI-H23 lung) of 29 µM and a TGI (RPMI-8226 leukemia) of 30.8 µM. The TGI (SF-295 CNS) was 29.6 µM, the TGI (BT-549 breast) was 32.1 µM and the TGI (TK-10 renal) was 30.9 µM. The TGI (SK-OV-3 ovarian) was 31.1 µM, the TGI (SK-MEL-5 melanoma) was 29.7 µM and the TGI (SNB-19 CNS) was 31.2 µM. For the same molecule, the TGI (A549 NSCLC) was 28.6 µM, the TGI (UO-31 renal) was 29.9 µM and the TGI (HOP-92 NSCLC) was 27.7 µM. The TGI (MOLT-4 leukemia) was 30.8 µM, the TGI (SK-MEL-28 melanoma) was 30.4 µM and the TGI (NCI-H226 lung) was 30.4 µM. It also gave a TGI (MDA-MB-231 breast) of 29.5 µM, a TGI (CAKI-1 renal) of 31.7 µM and a TGI (OVCAR-3 ovarian) of 29.3 µM. The TGI (MALME-3M melanoma) was 28.1 µM, the TGI (MCF7 breast) was 29.4 µM and the TGI (RXF 393 renal) was 30.6 µM. The TGI (SF-539 CNS) was 30.2 µM, the TGI (T-47D breast) was 33 µM and the TGI (COLO 205 colon) was 32.9 µM. For the same molecule, the TGI (SR leukemia) was 32 µM, the TGI (OVCAR-5 ovarian) was 28.6 µM and the TGI (CCRF-CEM leukemia) was 41 µM. The TGI (UACC-62 melanoma) was 27.4 µM.
In the case of O=C1CC(=O)NC(=NNS(=O)(=O)c2ccc(Cl)cc2)N1, the TGI (SN12C renal) was greater than 100 µM, the TGI (DU-145 prostate) was greater than 100 µM and the TGI (HL-60(TB) leukemia) was greater than 100 µM. For the same molecule, the TGI (KM12 colon) was greater than 100 µM, the TGI (A498 renal) was greater than 100 µM and the TGI (ACHN renal) was greater than 100 µM. It also gave a TGI (NCI-H522 lung) greater than 100 µM, a TGI (PC-3 prostate) greater than 100 µM and a TGI (MDA-N) greater than 100 µM. It also gave a TGI (K-562 leukemia) greater than 100 µM, a TGI (HCT-15 colon) greater than 100 µM and a TGI (NCI/ADR-RES ovarian) greater than 100 µM. The TGI (UACC-257 melanoma) was greater than 100 µM, the TGI (NCI-H460 lung) was greater than 100 µM and the TGI (U251 CNS) was greater than 100 µM. The TGI (HS 578T breast) was greater than 100 µM, the TGI (HCT-116 colon) was greater than 100 µM and the TGI (MDA-MB-435) was greater than 100 µM. It also gave a TGI (SF-268 CNS) greater than 100 µM, a TGI (SK-MEL-2 melanoma) greater than 100 µM and a TGI (OVCAR-8 ovarian) greater than 100 µM. It also gave a TGI (IGROV1 ovarian) greater than 100 µM, a TGI (SW-620 colon) greater than 100 µM and a TGI (M14 melanoma) greater than 100 µM. The TGI (HT29 colon) was greater than 100 µM, the TGI (OVCAR-4 ovarian) was greater than 100 µM and the TGI (786-0 renal) was greater than 100 µM. The TGI (HOP-62 NSCLC) was greater than 100 µM, the TGI (NCI-H23 lung) was greater than 100 µM and the TGI (RPMI-8226 leukemia) was greater than 100 µM. It also gave a TGI (SF-295 CNS) greater than 100 µM, a TGI (BT-549 breast) greater than 100 µM and a TGI (TK-10 renal) greater than 100 µM. For the same molecule, the TGI (SK-OV-3 ovarian) was greater than 100 µM, the TGI (SK-MEL-5 melanoma) was greater than 100 µM and the TGI (SNB-19 CNS) was greater than 100 µM. It also gave a TGI (SNB-75 CNS) greater than 100 µM, a TGI (A549 NSCLC) greater than 100 µM and a TGI (UO-31 renal) greater than 100 µM. The TGI (HOP-92 NSCLC) was greater than 100 µM, the TGI (MOLT-4 leukemia) was greater than 100 µM and the TGI (SK-MEL-28 melanoma) was greater than 100 µM. It also gave a TGI (NCI-H226 lung) greater than 100 µM, a TGI (MDA-MB-231 breast) greater than 100 µM and a TGI (CAKI-1 renal) greater than 100 µM. The TGI (OVCAR-3 ovarian) was greater than 100 µM, the TGI (HCC-2998 colon) was greater than 100 µM and the TGI (MALME-3M melanoma) was greater than 100 µM. It also gave a TGI (MCF7 breast) greater than 100 µM, a TGI (RXF 393 renal) greater than 100 µM and a TGI (SF-539 CNS) greater than 100 µM. It also gave a TGI (T-47D breast) greater than 100 µM, a TGI (COLO 205 colon) greater than 100 µM and a TGI (SR leukemia) greater than 100 µM. For the same molecule, the TGI (OVCAR-5 ovarian) was greater than 100 µM, the TGI (CCRF-CEM leukemia) was greater than 100 µM and the TGI (UACC-62 melanoma) was greater than 100 µM.
